Experimental data from the NIST ThermoML archive (doi:10.1021/je800596c).
± gives the expanded uncertainty stated by the source.

What was measured:
[1] = Molar enthalpy of transition or fusion; conditions: Crystal; DSC
[2] = Crystal; DTA

| Molar enthalpy of transition or fusion [1] [kcal/mol] | Normal melting temperature [2] [°C] | SMILES |
| --- | --- | --- |
| 7.22 ± 0.206 | 137.56 ± 0.5 | COC(=O)C=Cc1ccc(O)cc1 [2-propenoic acid, 3-(4-hydroxyphenyl)-, methyl ester] |
| 7.14 ± 0.203 | 88.64 ± 0.5 | COC(=O)/C=C/c1cc(OC)c(O)c(OC)c1 [3,5-dimethoxy-4-hydroxy cinnamic acid methyl ester] |
| 6.17 ± 0.179 | 62.56 ± 0.5 | COC(=O)C=Cc1ccc(O)c(OC)c1 [methyl 3-(4-hydroxy-3-methoxyphenyl)-2-propenoate] |
